Test results from ChEMBL document CHEMBL5465560, “Selectivity Literature for EUbOPEN Chemogenomic Library” (2024).
One block for each compound: values may come before it.

Columns and labels:
[1] = biological target: Ribosomal protein S6 kinase alpha-5 (Homo sapiens) (UniProt O75582); conditions: at 10 µM
[2] = biological target: T1, Serine/threonine-protein kinase ICK (Homo sapiens) (UniProt Q9UPZ9); assay: Selectivity interaction (Ambit KINOMEscan and KiNATiv profiling in Jurkat cells) EUB0000090b ICK; assay type: cell-based; conditions: at 1 µM
T1 sequence (whole entry): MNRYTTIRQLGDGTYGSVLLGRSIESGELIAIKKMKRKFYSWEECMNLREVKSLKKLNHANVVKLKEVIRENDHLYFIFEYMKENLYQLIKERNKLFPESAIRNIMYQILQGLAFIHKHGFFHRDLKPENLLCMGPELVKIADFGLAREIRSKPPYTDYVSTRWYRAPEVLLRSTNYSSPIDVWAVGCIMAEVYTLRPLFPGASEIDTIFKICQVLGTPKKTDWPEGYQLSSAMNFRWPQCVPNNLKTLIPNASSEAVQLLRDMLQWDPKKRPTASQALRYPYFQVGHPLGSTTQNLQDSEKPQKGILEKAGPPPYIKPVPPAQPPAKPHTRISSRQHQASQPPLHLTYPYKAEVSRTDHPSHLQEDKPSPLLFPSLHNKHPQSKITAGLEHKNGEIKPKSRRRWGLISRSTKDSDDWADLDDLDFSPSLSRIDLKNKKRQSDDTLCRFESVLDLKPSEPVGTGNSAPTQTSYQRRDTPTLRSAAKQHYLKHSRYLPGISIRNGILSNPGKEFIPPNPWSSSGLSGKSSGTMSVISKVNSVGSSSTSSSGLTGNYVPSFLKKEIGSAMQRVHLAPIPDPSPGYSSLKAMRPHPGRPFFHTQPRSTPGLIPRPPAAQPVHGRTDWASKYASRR

[3] = biological target: T2, Mitogen-activated protein kinase kinase kinase kinase 2 (Homo sapiens) (UniProt Q12851); assay: Selectivity interaction (ActivX KiNativ screen (kinase selectivity in THP-1 cell lysates)) EUB0000639a MAP4K2; assay type: subcellular; conditions: lysate
T2 sequence (whole entry): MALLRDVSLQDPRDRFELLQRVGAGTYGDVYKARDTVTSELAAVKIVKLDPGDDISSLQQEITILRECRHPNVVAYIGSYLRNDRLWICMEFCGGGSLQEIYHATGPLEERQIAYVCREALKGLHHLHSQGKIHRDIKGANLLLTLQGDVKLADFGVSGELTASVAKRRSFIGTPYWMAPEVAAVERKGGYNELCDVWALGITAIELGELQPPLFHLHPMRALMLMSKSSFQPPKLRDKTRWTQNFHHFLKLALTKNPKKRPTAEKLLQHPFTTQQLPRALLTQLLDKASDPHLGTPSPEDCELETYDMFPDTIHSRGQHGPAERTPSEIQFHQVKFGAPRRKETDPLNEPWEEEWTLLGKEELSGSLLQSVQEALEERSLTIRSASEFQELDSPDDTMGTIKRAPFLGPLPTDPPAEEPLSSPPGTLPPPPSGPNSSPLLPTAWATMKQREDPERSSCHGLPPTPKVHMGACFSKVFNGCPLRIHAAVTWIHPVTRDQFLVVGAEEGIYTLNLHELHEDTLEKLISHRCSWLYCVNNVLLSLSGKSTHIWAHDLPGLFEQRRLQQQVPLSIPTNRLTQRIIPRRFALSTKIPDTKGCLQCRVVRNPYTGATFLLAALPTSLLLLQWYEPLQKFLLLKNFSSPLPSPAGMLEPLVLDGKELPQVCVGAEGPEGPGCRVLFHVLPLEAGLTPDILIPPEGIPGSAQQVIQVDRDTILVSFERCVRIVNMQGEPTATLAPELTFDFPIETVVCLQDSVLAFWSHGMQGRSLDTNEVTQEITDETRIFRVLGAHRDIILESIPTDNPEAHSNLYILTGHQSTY

[4] = biological target: Phosphatidylinositol 4,5-bisphosphate 3-kinase catalytic subunit beta isoform (Homo sapiens) (UniProt P42338); assay: Selectivity interaction (ActivX KiNativ screen (kinase selectivity in THP-1 cell lysates)) EUB0000639a PIK3CB; assay type: subcellular; conditions: lysate
Chain of Phosphatidylinositol 4,5-bisphosphate 3-kinase catalytic subunit beta isoform (Homo sapiens) (P42338 whole entry, looked up, canonical isoform): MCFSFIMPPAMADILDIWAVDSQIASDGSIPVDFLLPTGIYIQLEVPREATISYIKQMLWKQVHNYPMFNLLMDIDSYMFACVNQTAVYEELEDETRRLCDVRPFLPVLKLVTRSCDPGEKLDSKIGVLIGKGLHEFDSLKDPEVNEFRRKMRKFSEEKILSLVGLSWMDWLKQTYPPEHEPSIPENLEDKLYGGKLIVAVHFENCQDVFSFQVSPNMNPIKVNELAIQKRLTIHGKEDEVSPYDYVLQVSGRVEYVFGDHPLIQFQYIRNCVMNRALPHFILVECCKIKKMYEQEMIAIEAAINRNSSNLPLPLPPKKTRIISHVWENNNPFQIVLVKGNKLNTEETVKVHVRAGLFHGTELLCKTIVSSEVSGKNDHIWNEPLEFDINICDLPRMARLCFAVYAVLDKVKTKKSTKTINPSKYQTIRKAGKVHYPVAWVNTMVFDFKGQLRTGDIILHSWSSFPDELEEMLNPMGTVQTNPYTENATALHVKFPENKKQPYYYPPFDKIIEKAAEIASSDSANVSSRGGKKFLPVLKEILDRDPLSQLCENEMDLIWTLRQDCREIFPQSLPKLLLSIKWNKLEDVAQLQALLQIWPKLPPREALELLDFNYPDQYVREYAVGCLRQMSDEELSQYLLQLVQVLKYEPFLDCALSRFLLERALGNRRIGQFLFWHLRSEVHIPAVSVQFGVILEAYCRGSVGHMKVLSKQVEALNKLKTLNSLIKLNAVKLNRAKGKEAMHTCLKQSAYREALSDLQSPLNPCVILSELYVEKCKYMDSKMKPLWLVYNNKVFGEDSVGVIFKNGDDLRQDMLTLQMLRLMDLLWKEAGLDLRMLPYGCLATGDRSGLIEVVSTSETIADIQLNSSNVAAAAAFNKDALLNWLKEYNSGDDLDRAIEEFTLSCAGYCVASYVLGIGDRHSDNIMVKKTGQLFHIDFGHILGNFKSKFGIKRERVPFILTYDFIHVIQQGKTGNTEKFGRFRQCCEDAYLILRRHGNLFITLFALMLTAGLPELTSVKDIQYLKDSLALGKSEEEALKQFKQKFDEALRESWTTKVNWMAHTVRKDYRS

[5] = biological target: Cyclin-dependent kinase 13 (Homo sapiens, UniProt Q14004); assay: Selectivity interaction (KinomeScan (DiscoverX)) EUB0000595a CDK13; conditions: at 10 µM
[6] = biological target: Macrophage colony-stimulating factor 1 receptor (Homo sapiens) (UniProt P07333); assay: Selectivity interaction (KinomeScan (DiscoverX)) EUB0000229b CSF1R; conditions: at 10 µM
Chain of Macrophage colony-stimulating factor 1 receptor (Homo sapiens) (P07333 whole entry): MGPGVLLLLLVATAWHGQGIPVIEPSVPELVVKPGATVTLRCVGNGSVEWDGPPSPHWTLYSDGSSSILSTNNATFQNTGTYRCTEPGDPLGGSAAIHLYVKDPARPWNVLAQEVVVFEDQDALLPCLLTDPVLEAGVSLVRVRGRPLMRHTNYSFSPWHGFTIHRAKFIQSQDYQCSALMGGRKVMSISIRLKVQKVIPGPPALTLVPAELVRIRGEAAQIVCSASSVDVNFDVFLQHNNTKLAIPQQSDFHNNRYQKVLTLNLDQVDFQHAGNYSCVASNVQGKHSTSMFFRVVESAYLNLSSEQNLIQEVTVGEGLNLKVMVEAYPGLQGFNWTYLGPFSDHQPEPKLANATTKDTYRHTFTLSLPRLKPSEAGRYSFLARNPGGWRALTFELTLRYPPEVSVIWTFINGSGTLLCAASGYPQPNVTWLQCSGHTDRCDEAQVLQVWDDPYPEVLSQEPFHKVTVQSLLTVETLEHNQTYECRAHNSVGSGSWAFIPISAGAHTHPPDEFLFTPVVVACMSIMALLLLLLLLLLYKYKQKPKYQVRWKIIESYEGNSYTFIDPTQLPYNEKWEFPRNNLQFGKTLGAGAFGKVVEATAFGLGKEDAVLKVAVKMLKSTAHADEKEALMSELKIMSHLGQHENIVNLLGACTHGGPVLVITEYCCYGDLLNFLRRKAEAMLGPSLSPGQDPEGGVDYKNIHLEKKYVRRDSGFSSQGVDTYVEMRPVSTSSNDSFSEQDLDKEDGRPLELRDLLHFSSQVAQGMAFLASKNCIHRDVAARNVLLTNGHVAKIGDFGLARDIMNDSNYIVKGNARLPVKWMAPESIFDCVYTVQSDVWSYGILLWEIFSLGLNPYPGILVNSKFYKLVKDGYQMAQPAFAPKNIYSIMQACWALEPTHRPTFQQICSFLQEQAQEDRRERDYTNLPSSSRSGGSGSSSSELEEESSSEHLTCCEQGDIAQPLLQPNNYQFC

[7] = biological target: Mitogen-activated protein kinase 11 (Homo sapiens) (UniProt Q15759); assay: Selectivity interaction (Upstate Kinase Profiler service (Millipore)) EUB0000056c MAPK11; conditions: at 1 µM
Chain of Mitogen-activated protein kinase 11 (Homo sapiens) (Q15759 whole entry): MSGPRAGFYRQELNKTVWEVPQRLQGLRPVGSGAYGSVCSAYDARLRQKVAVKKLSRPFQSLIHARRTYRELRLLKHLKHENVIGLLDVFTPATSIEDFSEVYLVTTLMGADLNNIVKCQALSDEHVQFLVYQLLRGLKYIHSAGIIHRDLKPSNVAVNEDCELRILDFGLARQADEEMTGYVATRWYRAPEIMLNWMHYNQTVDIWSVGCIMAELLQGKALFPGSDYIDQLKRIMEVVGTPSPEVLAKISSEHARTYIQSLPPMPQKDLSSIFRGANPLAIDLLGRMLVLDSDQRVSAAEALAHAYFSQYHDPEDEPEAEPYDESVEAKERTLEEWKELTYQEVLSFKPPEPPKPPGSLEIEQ

[8] = biological target: Serine/threonine-protein kinase 38-like (Homo sapiens) (UniProt Q9Y2H1); assay: Selectivity interaction (KinomeScan (DiscoverX)) EUB0000618a STK38L; conditions: at 10 µM
Chain of Serine/threonine-protein kinase 38-like (Homo sapiens) (Q9Y2H1 2-464 limits assumed): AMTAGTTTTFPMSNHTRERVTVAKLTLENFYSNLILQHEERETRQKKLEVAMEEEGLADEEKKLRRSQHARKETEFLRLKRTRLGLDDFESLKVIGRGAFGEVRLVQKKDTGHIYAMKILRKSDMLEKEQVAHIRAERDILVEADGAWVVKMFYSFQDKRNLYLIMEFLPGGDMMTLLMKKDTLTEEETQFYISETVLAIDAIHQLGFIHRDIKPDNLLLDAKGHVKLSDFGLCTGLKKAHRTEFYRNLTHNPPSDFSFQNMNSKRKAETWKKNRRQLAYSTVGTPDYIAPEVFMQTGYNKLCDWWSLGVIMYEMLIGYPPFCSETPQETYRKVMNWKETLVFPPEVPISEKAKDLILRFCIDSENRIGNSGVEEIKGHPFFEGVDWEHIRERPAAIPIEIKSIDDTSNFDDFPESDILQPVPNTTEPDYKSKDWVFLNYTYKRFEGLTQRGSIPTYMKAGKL

[9] = biological target: T3, Histone-lysine N-methyltransferase SUV39H1 (Homo sapiens) (UniProt O43463); assay: Selectivity interaction (Methyltransferase screen (Scintillation proximity assays)) EUB0000255b SUV39H1
T3 sequence (whole entry): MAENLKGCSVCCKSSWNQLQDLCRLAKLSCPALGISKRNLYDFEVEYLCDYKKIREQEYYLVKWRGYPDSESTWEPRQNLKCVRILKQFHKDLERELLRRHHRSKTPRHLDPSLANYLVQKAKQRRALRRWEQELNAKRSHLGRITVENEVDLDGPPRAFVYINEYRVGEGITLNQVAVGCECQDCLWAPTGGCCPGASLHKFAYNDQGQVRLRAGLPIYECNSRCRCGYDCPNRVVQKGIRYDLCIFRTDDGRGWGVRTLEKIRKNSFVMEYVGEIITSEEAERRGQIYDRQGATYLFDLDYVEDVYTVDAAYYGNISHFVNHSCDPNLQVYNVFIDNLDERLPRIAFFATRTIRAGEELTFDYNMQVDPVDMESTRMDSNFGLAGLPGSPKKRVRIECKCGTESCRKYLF

Chain of Ribosomal protein S6 kinase alpha-5 (Homo sapiens) (O75582 whole entry, looked up): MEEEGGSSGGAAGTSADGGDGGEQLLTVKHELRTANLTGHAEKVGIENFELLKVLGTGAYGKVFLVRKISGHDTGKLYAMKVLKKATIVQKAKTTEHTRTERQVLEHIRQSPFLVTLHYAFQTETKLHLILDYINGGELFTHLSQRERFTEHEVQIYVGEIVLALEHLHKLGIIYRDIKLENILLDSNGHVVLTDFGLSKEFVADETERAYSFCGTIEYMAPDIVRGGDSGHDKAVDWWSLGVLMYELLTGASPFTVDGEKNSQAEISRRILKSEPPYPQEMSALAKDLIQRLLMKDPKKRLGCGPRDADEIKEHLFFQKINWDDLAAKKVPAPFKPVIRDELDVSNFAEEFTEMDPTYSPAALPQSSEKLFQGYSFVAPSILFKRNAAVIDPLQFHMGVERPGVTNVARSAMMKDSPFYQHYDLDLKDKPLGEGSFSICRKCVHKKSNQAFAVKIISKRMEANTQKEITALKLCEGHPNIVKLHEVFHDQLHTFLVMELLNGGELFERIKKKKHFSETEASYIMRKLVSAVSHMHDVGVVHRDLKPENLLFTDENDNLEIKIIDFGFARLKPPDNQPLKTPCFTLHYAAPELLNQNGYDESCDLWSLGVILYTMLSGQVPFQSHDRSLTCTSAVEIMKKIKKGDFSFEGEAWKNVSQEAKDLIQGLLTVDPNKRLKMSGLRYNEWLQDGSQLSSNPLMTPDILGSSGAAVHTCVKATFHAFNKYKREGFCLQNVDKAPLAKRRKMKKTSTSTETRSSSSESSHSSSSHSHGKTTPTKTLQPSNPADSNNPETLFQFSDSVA

Compound: Cc1cc([C@@H](C)Nc2ccccc2C(=O)O)c2nc(N3CCOCC3)cc(=O)n2c1 [AZD-6482]
% of control [1]: 81%

Compound: CN(C)C/C=C/C(=O)Nc1ccc(C(=O)N2CCCC(Nc3ncc(Cl)c(-c4c[nH]c5ccccc45)n3)C2)cc1 (stereo not drawn)
% of control [2]: 62%

% of inhibition ([3]; at 0.01 µM): -10% | % of inhibition ([3]; at 0.04 µM): -5.8% | % of inhibition ([3]; at 0.2 µM): -8.2% | % of inhibition ([3]; at 1 µM): -2.9% | % of inhibition ([3]; at 5 µM): -12.1% | % of inhibition ([4]; at 0.01 µM): -2.4% | % of inhibition ([4]; at 0.04 µM): 1.2% | % of inhibition ([4]; at 0.2 µM): -29.5% | % of inhibition ([4]; at 1 µM): -29% | % of inhibition ([4]; at 5 µM): 14.7%
Compound: CC[C@@H]1[C@H](F)C(=O)N[C@@H]1COc1nccc2cc(C(N)=O)c(OC)cc12 [ZIMLOVISERTIB]

Compound: COCC(=O)NC/C=C/c1ccc2ncnc(Nc3ccc(Oc4ccc(C)nc4)c(C)c3)c2c1 [CP-724714]
% of control [5]: 100%

Compound: COc1cc(N(C)c2ccnc3ccc(C(F)(F)F)cc23)cc(OC)c1OC
% binding [6]: 96%

% of inhibition [7]: 5%
Compound: Cc1ccc(-c2ccc3c(ccc4sc5c(c43)NC[C@@H](C)NC5=O)n2)cn1

Compound: O[C@H]1CC[C@H](Nc2ncc3nc(Nc4c(F)cc(F)cc4F)n([C@H]4CCOC4)c3n2)CC1
% of control [8]: 100%

Compound: COCCN1CCC(c2cc(CN(C)C(=O)c3cccc(Oc4ccccc4)c3)ccn2)CC1
% activity ([9]; at 1 µM): > 95% | % activity ([9]; at 10 µM): > 90%
